This passage reports delivery of cargo and proton-sponge effect capacity results from patent publication US20250302762A1, “NANOMATERIAL DELIVERY VEHICLE AND METHOD OF USE THEREOF” (University of Connecticut, priority 2022, published 2025).

For data set [1], the system named is cells. Description: Delivery of small RNAs, mRNAs and albumin via Arg-JBNP. In kind it is cell-based. The note with it: FIGS. 3A-3E. As for the experimental part: Multi-functional JBNPs. Multi-functional JBNPs were prepared by mixing a cargo molecule (e.g., RNA, biologically active small molecule, protein) with the multi-functional JBNT at an appropriate molar ratio in nuclease-free water, followed by sonication with a sonicator at 100% amplitude, for 2 min and 30 s, at room temperature. The concentrations of different components are shown as below: c(JBNT)=1 mg/mL; c(siRNA)=5 uM; c(mRNA)=0.05 mg/mL. c(protein)=0.1 mg/mL. The ratios (volume to volume ratio) for each cargo: (4:1 ratio (Arg-JBNT:siRNA), (20:1 ratio Arg-JBNT:mRNA), (3:1 Arg-JBNT: protein).
Arg-JBNP-siRNA were assembled by mixing Arg-JBNT(1 mg/ml) and siRNA-AF488 (5 uM) in nuclease-free water as ratio of volume to volume of 4:1. Arg-JBNP-mRNA were assembled by mixing Arg-JBNT (1 mg/ml) to Cas9mRNA (0.05 mg/ml) as ratio of volume to volume of 20:1. Arg-JBNP-albumin were assembled by mixing Arg-JBNT (1 mg/ml) to albumin (0.1 mg/ml) as ratio of volume to volume, 3:1. Then mixture of Arg-JBNT and cargoes in nuclease-free water are sonicated with sonicator at 100% amplitude for 2 min and 30 sec.

The nature of data set [2]: Buffering capacity (acid-base titration), proton sponge effect. In kind it is physicochemical. The note with it: FIG. 4D. As to the method:
JBNP Characterization. The particles and ζ potential of the JBNPs were measured by dynamic light scattering (Zetasizer) and the morphology was observed by transmission electron microscope (TEM). The get retardation assay was conducted at 0.8% low-melting agarose gel followed by electrophoresis. The UV-Vis absorption spectra were recorded with a NanoDrop One. The buffering capacity of JBNPs and polymers, JBNP and cationic polymers at the same 0.08 μmol were titrated by either adding the 2 μL of 10 mM HCl or 10 mM NaOH.

`CNc1nc2c(c(N)nc(=O)n2CCN[C@@H](CCCNC(=N)N)C(=O)O)c(=O)[nH]1` [ArgJBNTs]: the delivery of cargo result in data set [1] is “successful delivery of small RNAs, mRNAs, and albumin (protein)”.
With `CNc1nc2c(c(N)nc(=O)n2CCN[C@@H](Cc2c[nH]cn2)C(=O)O)c(=O)[nH]1` [Histidine-JBNTs], the proton-sponge effect capacity entry in data set [2] is given as “superior proton-sponge effect capacity”.
